Test results from the supplement of paper PMC11208160.

Test: recombinant UMI read abundance after kanamycin selection (control-corrected) (log10(CPM+1)); higher = more efficient recombination; extreme values may be limits of the assay; sequences stand for … in AGTGCAGAGAAAATCGGCCAGTTTTCTCTGCCTGCAGTCCGCATGCCGTGGGACCCCTTGGGTTCTAACCTGTTGCCTAGATTTATGCAGCGGACTGCCTTTCTCCCAAAGTGATAAACCGG…AGGTTGGTTTCACT; site = the 11-nt donor
Protocol: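 Pooled E. coli donor-specificity screen for the IS621 bridge recombinase. Each library member carries a reprogrammed 11-nt donor and a full-length LE bridge RNA expressed in cis from the natural promoter, with a paired donor-binding loop (8-nt LDG + 4-nt RDG) and a target-binding loop fixed to T5. It is co-electroporated with a T5 target plasmid; recombinase is induced with 0.07 mM IPTG and recombinants are selected on kanamycin. UMIs are counted as CPM, averaged over two biological replicates and corrected by the unselected control. Molecule = full bridge RNA written as DNA, built from the T5 scaffold: LDG = donor specificity nt 1-8, RDG = reverse complement of nt 8-11.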
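Note: IS621 bridge recombinase in Escherichia coli cells against a fixed T5 target plasmid.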

| Sequence | recombinant UMI read abundance (log10) |
| --- | --- |
| ACCCATACATGGACCGGTTTTCCCGGTAATCCGTATTTGAA (site ACCCATACTTT) | 1.34 |
| ACCCGAACATGGACCGGTTTTCCCGGTAATCCGTATTTGTC (site ACACGAACTGA) | 0 |
| ACCCGAACATGGACCGGTTTTCCCGGTAATCCGTATTTGTC (site ACCCGAACTGA) | 1.95 |
| ACCCGAACATGGACCGGTTTTCCCGGTAATCCGTATTTGTC (site ACGCGAACTGA) | 0 |
| ACCCGAACATGGACCGGTTTTCCCGGTAATCCGTATTTGTC (site ACTCGAACTGA) | 0 |
| ACCCTAGCATGGACCGGTTTTCCCGGTAATCCGTATTTGTT (site AACCTAGCTAA) | 0.0322 |
| ACCCTAGCATGGACCGGTTTTCCCGGTAATCCGTATTTGTT (site ACCCTAGCTAA) | 0 |
| ACCCTAGCATGGACCGGTTTTCCCGGTAATCCGTATTTGTT (site AGCCTAGCTAA) | 0.00512 |
| ACCCTAGCATGGACCGGTTTTCCCGGTAATCCGTATTTGTT (site ATCCTAGCTAA) | 0.016 |
| ACCCTGTCATGGACCGGTTTTCCCGGTAATCCGTATTTGGG (site ACCCTGTCTCC) | 0 |
| ACCGAGCCATGGACCGGTTTTCCCGGTAATCCGTATTTGCG (site ACCGAGCCTCG) | 0.0257 |
| ACCGTAGCATGGACCGGTTTTCCCGGTAATCCGTATTTGTG (site ACCGTAGCTCA) | 0.533 |
| ACCGTATCATGGACCGGTTTTCCCGGTAATCCGTATTTGCA (site ACAGTATCTTG) | 2.58 |
| ACCGTATCATGGACCGGTTTTCCCGGTAATCCGTATTTGCA (site ACCGTATCTTG) | 2.45 |
| ACCGTATCATGGACCGGTTTTCCCGGTAATCCGTATTTGCA (site ACGGTATCTTG) | 0.962 |
| ACCGTATCATGGACCGGTTTTCCCGGTAATCCGTATTTGCA (site ACTGTATCTTG) | 0.874 |
| ACCGTGGCATGGACCGGTTTTCCCGGTAATCCGTATTTGGA (site ACCGTGGCTTC) | 0.325 |
| ACCGTTACATGGACCGGTTTTCCCGGTAATCCGTATTTGTC (site ACCGTTACTGA) | 1.49 |
| ACCTAAACATGGACCGGTTTTCCCGGTAATCCGTATTTGGG (site ACCTAAACTCC) | 0.256 |
| ACCTAAACATGGACCGGTTTTCCCGGTAATCCGTATTTGGG (site ACCTACACTCC) | 0.0196 |
| ACCTAAACATGGACCGGTTTTCCCGGTAATCCGTATTTGGG (site ACCTAGACTCC) | 0.0149 |
| ACCTAAACATGGACCGGTTTTCCCGGTAATCCGTATTTGGG (site ACCTATACTCC) | 0.0143 |

| Sequence | recombinant UMI read abundance (log10) |
| --- | --- |
| ACCTACACATGGACCGGTTTTCCCGGTAATCCGTATTTGGG (site ACCTAAACTCC) | 0.00329 |
| ACCTACACATGGACCGGTTTTCCCGGTAATCCGTATTTGGG (site ACCTACACTCC) | 0.0331 |
| ACCTACACATGGACCGGTTTTCCCGGTAATCCGTATTTGGG (site ACCTAGACTCC) | 0.00747 |
| ACCTACACATGGACCGGTTTTCCCGGTAATCCGTATTTGGG (site ACCTATACTCC) | 0.0213 |
| ACCTAGACATGGACCGGTTTTCCCGGTAATCCGTATTTGCG (site ACCTAGACTCA) | 0.0199 |
| ACCTAGACATGGACCGGTTTTCCCGGTAATCCGTATTTGCG (site ACCTAGACTCC) | 0.0218 |
| ACCTAGACATGGACCGGTTTTCCCGGTAATCCGTATTTGCG (site ACCTAGACTCG) | 1.58 |
| ACCTAGACATGGACCGGTTTTCCCGGTAATCCGTATTTGCG (site ACCTAGACTCT) | 0.262 |
| ACCTAGACATGGACCGGTTTTCCCGGTAATCCGTATTTGGC (site ACCTAGACTAC) | 0.532 |
| ACCTAGACATGGACCGGTTTTCCCGGTAATCCGTATTTGGC (site ACCTAGACTCC) | 0.0128 |
| ACCTAGACATGGACCGGTTTTCCCGGTAATCCGTATTTGGC (site ACCTAGACTGC) | 1.82 |
| ACCTAGACATGGACCGGTTTTCCCGGTAATCCGTATTTGGC (site ACCTAGACTTC) | 0.00402 |
| ACCTAGACATGGACCGGTTTTCCCGGTAATCCGTATTTGTG (site ACCTAGACTCA) | 0.799 |
| ACCTAGACATGGACCGGTTTTCCCGGTAATCCGTATTTGTG (site ACCTAGACTCC) | 0.114 |
| ACCTAGACATGGACCGGTTTTCCCGGTAATCCGTATTTGTG (site ACCTAGACTCG) | 0.469 |
| ACCTAGACATGGACCGGTTTTCCCGGTAATCCGTATTTGTG (site ACCTAGACTCT) | 0.22 |
| ACCTAGCCATGGACCGGTTTTCCCGGTAATCCGTATTTGGG (site ACCTAGACTCC) | 0.00935 |
| ACCTAGCCATGGACCGGTTTTCCCGGTAATCCGTATTTGGG (site ACCTAGCCTCC) | 0.00989 |
| ACCTAGCCATGGACCGGTTTTCCCGGTAATCCGTATTTGGG (site ACCTAGGCTCC) | 0.0311 |
| ACCTAGCCATGGACCGGTTTTCCCGGTAATCCGTATTTGGG (site ACCTAGTCTCC) | 0.0502 |
| ACCTATACATGGACCGGTTTTCCCGGTAATCCGTATTTGGG (site ACCTAAACTCC) | 0.00642 |
| ACCTATACATGGACCGGTTTTCCCGGTAATCCGTATTTGGG (site ACCTACACTCC) | 0.0606 |

| Sequence | recombinant UMI read abundance (log10) |
| --- | --- |
| ACCTATACATGGACCGGTTTTCCCGGTAATCCGTATTTGGG (site ACCTAGACTCC) | 0.0071 |
| ACCTATACATGGACCGGTTTTCCCGGTAATCCGTATTTGGG (site ACCTATACTCC) | 0.0144 |
| ACCTCATCATGGACCGGTTTTCCCGGTAATCCGTATTTGGT (site ACCTCATCTAC) | 0.128 |
| ACCTCCGCATGGACCGGTTTTCCCGGTAATCCGTATTTGAG (site ACCTCCGCTCT) | 0.147 |
| ACCTCTCCATGGACCGGTTTTCCCGGTAATCCGTATTTGCA (site ACCTCTCCTTG) | 0.367 |
| ACCTGGACATGGACCGGTTTTCCCGGTAATCCGTATTTGAG (site ACCTGGACTCT) | 1.41 |
| ACCTTTCCATGGACCGGTTTTCCCGGTAATCCGTATTTGGT (site ACCTTTCCTAC) | 0 |
| ACGAAAACATGGACCGGTTTTCCCGGTAATCCGTATTTGCT (site ACGAAAACTAG) | 1.81 |
| ACGAAAACATGGACCGGTTTTCCCGGTAATCCGTATTTGCT (site CCGAAAACTAG) | 0 |
| ACGAAAACATGGACCGGTTTTCCCGGTAATCCGTATTTGCT (site GCGAAAACTAG) | 0.581 |
| ACGAAAACATGGACCGGTTTTCCCGGTAATCCGTATTTGCT (site TCGAAAACTAG) | 0 |
| ACGAATCCATGGACCGGTTTTCCCGGTAATCCGTATTTGTT (site ACGAATCCTAA) | 1.32 |
| ACGAATCCATGGACCGGTTTTCCCGGTAATCCGTATTTGTT (site CGGAATCCTAA) | 0 |
| ACGACCACATGGACCGGTTTTCCCGGTAATCCGTATTTGTT (site ACGACCACTAA) | 1.29 |
| ACGACTACATGGACCGGTTTTCCCGGTAATCCGTATTTGAC (site AAGACTACTGT) | 1.19 |
| ACGACTACATGGACCGGTTTTCCCGGTAATCCGTATTTGAC (site ACGACTACTGT) | 2.45 |
| ACGACTACATGGACCGGTTTTCCCGGTAATCCGTATTTGAC (site AGGACTACTGT) | 0.613 |
| ACGACTACATGGACCGGTTTTCCCGGTAATCCGTATTTGAC (site ATGACTACTGT) | 1.69 |
| ACGAGGCCATGGACCGGTTTTCCCGGTAATCCGTATTTGCC (site ACGAGGCCTGG) | 0.486 |
| ACGAGTCCATGGACCGGTTTTCCCGGTAATCCGTATTTGGG (site ACGAGTCCTCC) | 0.00727 |
| ACGAGTGCATGGACCGGTTTTCCCGGTAATCCGTATTTGGT (site ACAAGTGCTAC) | 2.22 |
